Source: patent US20160046618A1, “Cyclopropyl Fused Thiazin-2-Amine Compounds as Beta-Secretase Inhibitors and Methods of Use” (AMGEN INC., priority 2014, published 2016)

Columns and labels:
Recombinant Cat D = Recombinant Cat D (Homo sapiens (Human), UniProt P07339); assay: In vitro enzymatic Cathepsin D (Cat D) FRET assay; assay type: biochemical; details: read-out: IC50 IP (μM) CatD
Outline: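 Recombinant Cat D expressed in CHO cells, assayed in 0.05 M citrate pH 3.5 with 5 mM CHAPS and 10% DMSO final. Reaction started with 20 nM FRET peptide substrate, incubated one hour, then stopped by Tris buffer to neutral pH; fluorescence read at ex 500/em 580 nm.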

human recombinant BACE1 = human recombinant BACE1 (Homo sapiens (Human), UniProt P56817); assay: In vitro enzymatic BACE1 FRET assay; assay type: biochemical; details: read-out: IC50 IP (μM) BACE1 enzyme
Sequence of human recombinant BACE1 (P56817 46-501): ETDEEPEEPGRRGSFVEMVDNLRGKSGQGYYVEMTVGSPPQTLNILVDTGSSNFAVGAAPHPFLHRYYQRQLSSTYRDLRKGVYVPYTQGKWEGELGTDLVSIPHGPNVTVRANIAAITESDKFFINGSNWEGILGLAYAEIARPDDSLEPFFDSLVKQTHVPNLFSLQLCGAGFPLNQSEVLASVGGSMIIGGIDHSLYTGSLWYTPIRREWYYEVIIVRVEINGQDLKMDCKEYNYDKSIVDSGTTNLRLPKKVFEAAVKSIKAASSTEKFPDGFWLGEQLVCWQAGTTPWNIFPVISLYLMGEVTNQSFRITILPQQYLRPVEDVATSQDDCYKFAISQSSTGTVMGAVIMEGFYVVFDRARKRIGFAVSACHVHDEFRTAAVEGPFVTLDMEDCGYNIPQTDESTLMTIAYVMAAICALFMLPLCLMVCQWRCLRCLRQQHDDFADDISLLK
Outline: (§1)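 Protease purified by Ni-NTA chromatography; start with FRET substrate (50 nM); incubate 1 h; quench with Tris to neutral pH; read fluorescence ex 488 / em 590 nm.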

human recombinant BACE2 = human recombinant BACE2 (Homo sapiens (Human), UniProt Q9Y5Z0); assay: In vitro enzymatic BACE2 FRET assay; assay type: biochemical; details: read-out: IC50 IP (μM) BACE2 enzyme
Sequence of human recombinant BACE2 (Q9Y5Z0 63-518): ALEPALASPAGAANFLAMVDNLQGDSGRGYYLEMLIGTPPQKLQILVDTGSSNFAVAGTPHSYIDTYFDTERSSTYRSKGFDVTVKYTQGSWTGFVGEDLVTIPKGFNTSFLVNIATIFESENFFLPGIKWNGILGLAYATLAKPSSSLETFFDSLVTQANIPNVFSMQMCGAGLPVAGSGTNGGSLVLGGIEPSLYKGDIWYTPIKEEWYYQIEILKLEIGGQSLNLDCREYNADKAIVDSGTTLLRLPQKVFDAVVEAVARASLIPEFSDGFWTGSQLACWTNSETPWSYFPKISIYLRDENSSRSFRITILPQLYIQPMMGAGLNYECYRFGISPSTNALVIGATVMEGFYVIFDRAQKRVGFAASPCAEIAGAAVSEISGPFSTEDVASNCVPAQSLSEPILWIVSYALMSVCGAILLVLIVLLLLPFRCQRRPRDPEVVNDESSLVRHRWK
Outline: as §1

[1] = tested on: Aβ40 in conditioned medium of cells stably expressing Amyloid Precursor Protein (APP); assay: In vitro BACE-1 cell-based assay (Aβ40 sandwich ELISA); details: read-out: IC50 IP (μM) BACE1 cell
Outline: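 APP-expressing cells treated 24 h at 37 °C with compound in 10-point dose response (top 100 μM or 10 μM, 0.1% DMSO final). Secreted Aβ40 in conditioned medium quantified by sandwich ELISA (pAb40 capture, biotinylated 6E10 detection, time-resolved europium fluorescence); IC50 from percent inhibition versus concentration.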

Sequence of Recombinant Cat D (P07339 65-412): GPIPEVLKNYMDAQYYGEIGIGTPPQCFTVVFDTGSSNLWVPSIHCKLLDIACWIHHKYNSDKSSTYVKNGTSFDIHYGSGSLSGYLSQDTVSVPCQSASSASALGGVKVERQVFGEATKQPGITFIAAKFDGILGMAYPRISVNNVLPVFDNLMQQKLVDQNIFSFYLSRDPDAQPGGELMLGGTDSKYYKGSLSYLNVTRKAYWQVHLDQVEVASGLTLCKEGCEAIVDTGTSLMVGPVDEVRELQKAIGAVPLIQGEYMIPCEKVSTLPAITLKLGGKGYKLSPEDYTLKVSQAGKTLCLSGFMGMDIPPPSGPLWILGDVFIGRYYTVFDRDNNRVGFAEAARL

| IC50 (Recombinant Cat D) [µM] | IC50 (human recombinant BACE1) [nM] | IC50 (human recombinant BACE2) [µM] | IC50 [1] [µM] | Compound |
| --- | --- | --- | --- | --- |
| 67 | 20.8 | 0.00465 | 0.026 | COc1ncc(NC(=O)c2ccc(Cl)cn2)cc1[C@@]1(C)N=C(N)S[C@@]2(C(F)F)C[C@@H]12 [Example 990, N-(5-((1S,5S,6S)-3-amino-1-(difluoromethyl)-5-methyl-2-thia-4-azabicyclo[4.1.0]hept-3-en-5-yl)-6-methoxy-3-pyridinyl)-5-chloro-2-pyridinecarboxamide] |
| 664 | 0.297 | 0.0097 | 0.000265 | C[C@]1(c2cc(NC(=O)c3cnc(OCC(F)(F)F)cn3)ccc2F)N=C(N)S[C@@]2(C(=O)N3CC[C@@H](F)C3)C[C@H]21 [Example 991, N-(3-((1S,5S,6S)-3-amino-1-((R)-3-fluoropyrrolidine-1-carbonyl)-5-methyl-2-thia-4-azabicyclo[4.1.0]hept-3-en-5-yl)-4-fluorophenyl)-5-(2,2,2-trifluoroethoxy)pyrazine-2-carboxamide] |
| 954 | 0.776 | 0.0125 | 0.000338 | C[C@]1(c2cc(NC(=O)c3cnc(OCC(F)(F)F)cn3)ccc2F)N=C(N)S[C@@]2(C(=O)N3CC[C@H](F)C3)C[C@H]21 [Example 992, N-(3-((1S,5S,6S)-3-amino-1-((S)-3-fluoropyrrolidine-1-carbonyl)-5-methyl-2-thia-4-azabicyclo[4.1.0]hept-3-en-5-yl)-4-fluorophenyl)-5-(2,2,2-trifluoroethoxy)pyrazine-2-carboxamide] |
| 255 | 0.48 | 0.061 | 0.000566 | C#C[C@H](C)Oc1cnc(C(=O)Nc2ccc(F)c([C@@]3(C)N=C(N)S[C@@]4(C(=O)NC5CC5)C[C@H]43)c2)cn1 [Example 993, (1S,5S,6S)-3-amino-N-cyclopropyl-5-(2-fluoro-5-(((5-(((1S)-1-methyl-2-propyn-1-yl)oxy)-2-pyrazinyl)carbonyl)amino)phenyl)-5-methyl-2-thia-4-azabicyclo[4.1.0]hept-3-ene-1-carboxamide] |
| 215 | 0.69 | 0.0689 | 0.00116 | C#C[C@H](C)Oc1cnc(C(=O)Nc2ccc(F)c([C@@]3(C)N=C(N)S[C@@]4(C(=O)NC(C)(C)C)C[C@H]43)c2)cn1 [Example 994, (1S,5S,6S)-3-amino-N-tert-butyl-5-(2-fluoro-5-(((5-(((1S)-1-methyl-2-propyn-1-yl)oxy)-2-pyrazinyl)carbonyl)amino)phenyl)-5-methyl-2-thia-4-azabicyclo[4.1.0]hept-3-ene-1-carboxamide] |
| 9.48 | 0.893 | 0.0509 | 0.00672 | CC(C)[C@@H](C)NC(=O)[C@]12C[C@H]1[C@@](C)(c1cc(NC(=O)c3cnc(OCC(F)(F)F)cn3)ccc1F)N=C(N)S2 [Example 997, (1S,5S,6S)-3-amino-5-(2-fluoro-5-(5-(2,2,2-trifluoroethoxy)pyrazine-2-carboxamido)phenyl)-5-methyl-N—((R)-3-methylbutan-2-yl)-2-thia-4-azabicyclo[4.1.0]hept-3-ene-1-carboxamide] |
| > 400 | 0.146 | 0.0754 | 0.0017 | C[C@]1(c2cc(NC(=O)c3cnc(OCC(F)(F)F)cn3)ccc2F)N=C(N)S[C@@]2(C(=O)N3CCOCC3)C[C@H]21 [Example 998, N-(3-((1S,5S,6S)-3-amino-5-methyl-1-(morpholine-4-carbonyl)-2-thia-4-azabicyclo[4.1.0]hept-3-en-5-yl)-4-fluorophenyl)-5-(2,2,2-trifluoroethoxy)pyrazine-2-carboxamide] |
| 180 | 0.09 | 0.0755 | 0.00613 | C[C@]1(c2cc(NC(=O)c3cnc(OCC(F)(F)F)cn3)ccc2F)N=C(N)S[C@@]2(C(=O)NCC(F)F)C[C@H]21 [Example 999, (1S,5S,6S)-3-amino-N-(2,2-difluoroethyl)-5-(2-fluoro-5-(5-(2,2,2-trifluoroethoxy)pyrazine-2-carboxamido)phenyl)-5-methyl-2-thia-4-azabicyclo[4.1.0]hept-3-ene-1-carboxamide] |
| 1000 | 0.07 | 0.00345 | 0.000921 | CN(C)C(=O)[C@]12C[C@H]1[C@@](C)(c1cc(NC(=O)c3cnc(OCC(F)(F)F)cn3)ccc1F)N=C(N)S2 [Example 1000, (1S,5S,6S)-3-amino-5-(2-fluoro-5-(5-(2,2,2-trifluoroethoxy)pyrazine-2-carboxamido)phenyl)-N,N,5-trimethyl-2-thia-4-azabicyclo[4.1.0]hept-3-ene-1-carboxamide] |
| 492 | 0.059 | 0.356 | 0.00589 | COC[C@H](C)Oc1cnc(C(=O)Nc2ccc(F)c([C@@]3(C)N=C(N)S[C@@]4(C(=O)NC5CC5)C[C@H]43)c2)cn1 [Example 1001, (1S,5S,6S)-3-amino-N-cyclopropyl-5-(2-fluoro-5-(((5-((1S)-2-methoxy-1-methylethoxy)-2-pyrazinyl)carbonyl)amino)phenyl)-5-methyl-2-thia-4-azabicyclo[4.1.0]hept-3-ene-1-carboxamide] |
| 82.7 | 1.77 | 0.165 | 0.00484 | CC(C)(C)NC(=O)[C@]12C[C@H]1[C@@](C)(c1cc(NC(=O)c3cnc(OCC(F)(F)F)cn3)ccc1F)N=C(N)S2 [Example 1002, (1S,5S,6S)-3-amino-N-tert-butyl-5-(2-fluoro-5-(((5-(2,2,2-trifluoroethoxy)-2-pyrazinyl)carbonyl)amino)phenyl)-5-methyl-2-thia-4-azabicyclo[4.1.0]hept-3-ene-1-carboxamide] |
| 297 | 5.65 | 0.48 | 0.021 | COC[C@H](C)Oc1cnc(C(=O)Nc2ccc(F)c([C@@]3(C)N=C(N)S[C@@]4(C(=O)NC(C)(C)C)C[C@H]43)c2)cn1 [Example 1003, (1S,5S,6S)-3-amino-N-tert-butyl-5-(2-fluoro-5-(((5-((1S)-2-methoxy-1-methylethoxy)-2-pyrazinyl)carbonyl)amino)phenyl)-5-methyl-2-thia-4-azabicyclo[4.1.0]hept-3-ene-1-carboxamide] |
| 14.9 | 0.1 | 0.00235 | 0.000324 | C#CCOc1cnc(C(=O)Nc2cc(F)c(F)c([C@@]3(C)N=C(N)S[C@@]4(C(=O)N5CCOCC5)C[C@H]43)c2)cn1 [Example 1004, N-(3-((1S,5S,6S)-3-amino-5-methyl-1-(morpholine-4-carbonyl)-2-thia-4-azabicyclo[4.1.0]hept-3-en-5-yl)-4,5-difluorophenyl)-5-(prop-2-yn-1-yloxy)pyrazine-2-carboxamide] |
| 72.1 | 0.384 | 0.00516 | 0.00108 | C#CCOc1cnc(C(=O)Nc2ccc(F)c([C@@]3(C)N=C(N)S[C@@]4(C(=O)N5CCOCC5)C[C@H]43)c2)cn1 [Example 1005, N-(3-((1S,5S,6S)-3-amino-5-methyl-1-(morpholine-4-carbonyl)-2-thia-4-azabicyclo[4.1.0]hept-3-en-5-yl)-4-fluorophenyl)-5-(prop-2-yn-1-yloxy)pyrazine-2-carboxamide] |
| 7.08 | 0.885 | 0.0213 | 0.000575 | C#CCOc1cnc(C(=O)Nc2ccc(F)c([C@@]3(C)N=C(N)S[C@@]4(C(=O)NC(C)(C)CF)C[C@H]43)c2)cn1 [Example 1006, (1S,5S,6S)-3-amino-N-(1-fluoro-2-methylpropan-2-yl)-5-(2-fluoro-5-(5-(prop-2-yn-1-yloxy)pyrazine-2-carboxamido)phenyl)-5-methyl-2-thia-4-azabicyclo[4.1.0]hept-3-ene-1-carboxamide] |
| 460 | 7.02 | 0.00484 | 0.73 | COC[C@]12C[C@H]1[C@@](C)(c1cc(NC(=O)c3cnc(Cl)cn3)cc(F)c1F)N=C(N)S2 [Example 1007] |
| > 400 | 4.71 | 0.195 | 0.0022 | COC[C@]12C[C@H]1[C@@](C)(c1cc(NC(=O)c3cnc(OCc4nc(C)no4)cn3)ccc1F)N=C(N)S2 [Example 1008, N-(3-((1S,5S,6S)-3-amino-1-(methoxymethyl)-5-methyl-2-thia-4-azabicyclo[4.1.0]hept-3-en-5-yl)-4-fluorophenyl)-5-((3-methyl-1,2,4-oxadiazol-5-yl)methoxy)-2-pyrazinecarboxamide] |
| 936 | 0.695 | 0.0436 | 0.00254 | C#C[C@H](C)Oc1cnc(C(=O)Nc2cc(F)c(F)c([C@@]3(C)N=C(N)S[C@@]4(COC)C[C@H]43)c2)cn1 [Example 1009, N-(3-((1S,5S,6S)-3-amino-1-(methoxymethyl)-5-methyl-2-thia-4-azabicyclo[4.1.0]hept-3-en-5-yl)-4,5-difluorophenyl)-5-(((1S)-1-methyl-2-propyn-1-yl)oxy)-2-pyrazinecarboxamide] |
